Experimental findings from patent publication US20130123325A1, “USE OF BOCEPREVIR AND RELATED COMPOUNDS IN ATHEROSCLEROSIS, HEART FAILURE, RENAL DISEASES, LIVER DISEASES OR INFLAMMATORY DISEASES” (priority 2011, published 2013) are described below.

Molecules are shown by their SMILES.

For this assay, the target named is T1, Recombinant human cathepsin A (Homo sapiens, UniProt P10619).
T1 construct: Recombinant human cathepsin A (residues 29-480, with a C-terminal 10-His tag); 10-His (C); purchased R & D Systems 1049-SE
T1 sequence (P10619 29-326 limits assumed): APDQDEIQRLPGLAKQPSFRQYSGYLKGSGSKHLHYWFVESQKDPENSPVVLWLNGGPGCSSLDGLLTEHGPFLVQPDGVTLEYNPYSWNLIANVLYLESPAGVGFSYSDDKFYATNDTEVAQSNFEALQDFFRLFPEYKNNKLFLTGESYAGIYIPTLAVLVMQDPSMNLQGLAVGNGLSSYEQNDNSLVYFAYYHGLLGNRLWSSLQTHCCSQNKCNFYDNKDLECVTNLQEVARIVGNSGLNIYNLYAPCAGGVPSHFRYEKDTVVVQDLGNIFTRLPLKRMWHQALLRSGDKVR
T1 sequence (P10619 327-480 limits assumed): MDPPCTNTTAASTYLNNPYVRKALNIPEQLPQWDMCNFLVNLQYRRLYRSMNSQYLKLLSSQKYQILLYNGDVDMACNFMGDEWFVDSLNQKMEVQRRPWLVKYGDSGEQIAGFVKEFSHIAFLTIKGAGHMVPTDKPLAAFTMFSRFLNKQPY
Description: Cathepsin A inhibitory activity. It is filed as biochemical. The conditions noted are these: Bodipy FL-labeled bradykinin substrate 2 μM, pH 5.5, microfluidic capillary electrophoresis. The method, then:
Recombinant human cathepsin A (residues 29-480, with a C-terminal 10-His tag; R & D Systems, # 1049-SE) was proteolytically activated with recombinant human cathepsin L (R & D Systems, # 952-CY). Briefly, cathepsin A was incubated at 10 μg/ml with cathepsin L at 1 μg/ml in activation buffer (25 mM 2-(morpholin-4-yl)-ethanesulfonic acid (MES), pH 6.0, containing 5 mM dithiothreitol (DTT)) for 15 min at 37° C. Cathepsin L activity was then stopped by the addition of the cysteine protease inhibitor E-64 (N-(trans-epoxysuccinyl)-L-leucine-4-guanidinobutylamide; Sigma-Aldrich, # E3132; dissolved in activation buffer/DMSO) to a final concentration of 10 μM.
The activated cathepsin A was diluted in assay buffer (25 mM MES, pH 5.5, containing 5 mM DTT) and mixed with the test compound (dissolved in assay buffer containing (v/v) 3% DMSO) or, in the control experiments, with the vehicle in a multiple assay plate. […]
Uncleaved substrate and product were then separated by a microfluidic capillary electrophoresis on a LabChip® 3000 Drug Discovery System (12-Sipper-Chip; Caliper Life Sciences) and quantified by determination of the respective peak areas. Substrate turnover was calculated by dividing product peak area by the sum of substrate and product peak areas, and the enzyme activity and the inhibitory effect of the test compound thus quantified. […]

On to `CC(C)(C)NC(=O)N[C@H](C(=O)N1C[C@H]2[C@@H]([C@H]1C(=O)NC(CC1CCC1)C(=O)C(N)=O)C2(C)C)C(C)(C)C` (stereo partly drawn) [Boceprevir, (1R,2S,5S)—N-[(2E)-4-amino-1-cyclobutyl-3,4-dioxobutan-2-yl]-3-{(2S)-2-[(tert-butylcarbamoyl)amino]-3,3-dimethylbutanoyl}-6,6-dimethyl-3-azabicyclo[3.1.0]hexane-2-carboxamide], for which the IC50 was 1000 nM.
